PubChem BioAssay (NCI)
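Values below derive from 48-hour exposures of cells grown in 96-well plates, with endpoints linearly interpolated between the two concentrations bracketing the appropriate inhibition level. Here, GI50 denotes the concentration required for 50% inhibition of growth. At the TGI there is no net growth.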

Key:
Test in all cases: growth of human tumour cells (NCI), 48 h
786-0 renal = tested on: 786-0 renal
A498 renal = tested on: A498 renal
A549 NSCLC = tested on: A549 NSCLC
ACHN renal = tested on: ACHN renal
CAKI-1 renal = tested on: CAKI-1 renal
CCRF-CEM leukemia = tested on: CCRF-CEM leukemia
COLO 205 colon = tested on: COLO 205 colon
DU-145 prostate = tested on: DU-145 prostate
EKVX NSCLC = tested on: EKVX NSCLC
HCT-116 colon = tested on: HCT-116 colon
HCT-15 colon = tested on: HCT-15 colon
HL-60(TB) leukemia = tested on: HL-60(TB) leukemia
HOP-92 NSCLC = tested on: HOP-92 NSCLC
HT29 colon = tested on: HT29 colon
IGROV1 ovarian = tested on: IGROV1 ovarian
K-562 leukemia = tested on: K-562 leukemia
LOX IMVI melanoma = tested on: LOX IMVI melanoma
M14 melanoma = tested on: M14 melanoma
MCF7 breast = tested on: MCF7 breast
MDA-MB-231 breast = tested on: MDA-MB-231 breast
MDA-MB-435 = tested on: MDA-MB-435
MDA-N = tested on: MDA-N
MOLT-4 leukemia = tested on: MOLT-4 leukemia
NCI-H226 lung = tested on: NCI-H226 lung
NCI-H23 lung = tested on: NCI-H23 lung
NCI-H460 lung = tested on: NCI-H460 lung
NCI-H522 lung = tested on: NCI-H522 lung
NCI/ADR-RES ovarian = tested on: NCI/ADR-RES ovarian
OVCAR-3 ovarian = tested on: OVCAR-3 ovarian
OVCAR-4 ovarian = tested on: OVCAR-4 ovarian
OVCAR-5 ovarian = tested on: OVCAR-5 ovarian
OVCAR-8 ovarian = tested on: OVCAR-8 ovarian
PC-3 prostate = tested on: PC-3 prostate
RPMI-8226 leukemia = tested on: RPMI-8226 leukemia
RXF 393 renal = tested on: RXF 393 renal
SF-295 CNS = tested on: SF-295 CNS
SF-539 CNS = tested on: SF-539 CNS
SK-MEL-2 melanoma = tested on: SK-MEL-2 melanoma
SK-MEL-28 melanoma = tested on: SK-MEL-28 melanoma
SK-MEL-5 melanoma = tested on: SK-MEL-5 melanoma
SN12C renal = tested on: SN12C renal
SNB-19 CNS = tested on: SNB-19 CNS
SR leukemia = tested on: SR leukemia
SW-620 colon = tested on: SW-620 colon
TK-10 renal = tested on: TK-10 renal
U251 CNS = tested on: U251 CNS
UACC-257 melanoma = tested on: UACC-257 melanoma
UACC-62 melanoma = tested on: UACC-62 melanoma
UO-31 renal = tested on: UO-31 renal
BT-549 breast = tested on: BT-549 breast
HCC-2998 colon = tested on: HCC-2998 colon
HOP-62 NSCLC = tested on: HOP-62 NSCLC
HS 578T breast = tested on: HS 578T breast
KM12 colon = tested on: KM12 colon
MALME-3M melanoma = tested on: MALME-3M melanoma
SF-268 CNS = tested on: SF-268 CNS
SK-OV-3 ovarian = tested on: SK-OV-3 ovarian
SNB-75 CNS = tested on: SNB-75 CNS
T-47D breast = tested on: T-47D breast

Which results are given for `C[C@]12CCC(N3CCCC3)CC1=CC[C@@H]1[C@@H]2CC[C@]2(C)C(O)[C@H](n3ccnc3)C[C@@H]12` (stereo not given in full)?
TGI (786-0 renal): > 100000 nM; TGI (A498 renal): > 100000 nM; TGI (A549 NSCLC): > 100000 nM; TGI (ACHN renal): > 100000 nM; TGI (CAKI-1 renal): > 100000 nM; TGI (CCRF-CEM leukemia): > 100000 nM; TGI (COLO 205 colon): > 100000 nM; TGI (DU-145 prostate): > 100000 nM; TGI (EKVX NSCLC): > 100000 nM; TGI (HCT-116 colon): > 100000 nM; TGI (HCT-15 colon): > 100000 nM; TGI (HL-60(TB) leukemia): 36100 nM; TGI (HOP-92 NSCLC): > 100000 nM; TGI (HT29 colon): > 100000 nM; TGI (IGROV1 ovarian): > 100000 nM; TGI (K-562 leukemia): > 100000 nM; TGI (LOX IMVI melanoma): > 100000 nM; TGI (M14 melanoma): 34400 nM; TGI (MCF7 breast): > 100000 nM; TGI (MDA-MB-231 breast): > 100000 nM; TGI (MDA-MB-435): > 100000 nM; TGI (MDA-N): > 100000 nM; TGI (MOLT-4 leukemia): 83600 nM; TGI (NCI-H226 lung): > 100000 nM; TGI (NCI-H23 lung): > 100000 nM; TGI (NCI-H460 lung): > 100000 nM; TGI (NCI-H522 lung): > 100000 nM; TGI (NCI/ADR-RES ovarian): > 100000 nM; TGI (OVCAR-3 ovarian): > 100000 nM; TGI (OVCAR-4 ovarian): > 100000 nM; TGI (OVCAR-5 ovarian): > 100000 nM; TGI (OVCAR-8 ovarian): > 100000 nM; TGI (PC-3 prostate): > 100000 nM; TGI (RPMI-8226 leukemia): > 100000 nM; TGI (RXF 393 renal): 72800 nM; TGI (SF-295 CNS): > 100000 nM; TGI (SF-539 CNS): 46500 nM; TGI (SK-MEL-2 melanoma): > 100000 nM; TGI (SK-MEL-28 melanoma): 68500 nM; TGI (SK-MEL-5 melanoma): > 100000 nM; TGI (SN12C renal): > 100000 nM; TGI (SNB-19 CNS): > 100000 nM; TGI (SR leukemia): 43900 nM; TGI (SW-620 colon): > 100000 nM; TGI (TK-10 renal): > 100000 nM; TGI (U251 CNS): > 100000 nM; TGI (UACC-257 melanoma): > 100000 nM; TGI (UACC-62 melanoma): > 100000 nM; TGI (UO-31 renal): > 100000 nM

Which results are given for `CCN(CC)CC(O)CNc1c2ccc(Cl)cc2nc2ccc(OC)cc12` (stereo not given)?
GI50 (786-0 renal): 549 nM; TGI (786-0 renal): 2050 nM; GI50 (A498 renal): 1430 nM; TGI (A498 renal): 2890 nM; GI50 (A549 NSCLC): 472 nM; TGI (A549 NSCLC): 2030 nM; GI50 (ACHN renal): 935 nM; TGI (ACHN renal): 3790 nM; GI50 (BT-549 breast): 1630 nM; TGI (BT-549 breast): 3050 nM; GI50 (CAKI-1 renal): 656 nM; TGI (CAKI-1 renal): 2330 nM; GI50 (CCRF-CEM leukemia): 673 nM; TGI (CCRF-CEM leukemia): 6880 nM; GI50 (COLO 205 colon): 528 nM; TGI (COLO 205 colon): 1680 nM; GI50 (DU-145 prostate): 710 nM; TGI (DU-145 prostate): 2210 nM; GI50 (EKVX NSCLC): 407 nM; TGI (EKVX NSCLC): 2080 nM; GI50 (HCC-2998 colon): 549 nM; TGI (HCC-2998 colon): 1770 nM; GI50 (HCT-116 colon): 367 nM; TGI (HCT-116 colon): 1410 nM; GI50 (HCT-15 colon): 679 nM; TGI (HCT-15 colon): 6430 nM; GI50 (HL-60(TB) leukemia): 960 nM; TGI (HL-60(TB) leukemia): 3320 nM; GI50 (HOP-62 NSCLC): 1010 nM; TGI (HOP-62 NSCLC): 2730 nM; GI50 (HOP-92 NSCLC): 1300 nM; TGI (HOP-92 NSCLC): 3840 nM; GI50 (HS 578T breast): 1240 nM; TGI (HS 578T breast): 3470 nM; GI50 (HT29 colon): 356 nM; TGI (HT29 colon): 1480 nM; GI50 (IGROV1 ovarian): 716 nM; TGI (IGROV1 ovarian): 3120 nM; GI50 (K-562 leukemia): 312 nM; TGI (K-562 leukemia): 979 nM; GI50 (KM12 colon): 512 nM; TGI (KM12 colon): 1860 nM; GI50 (LOX IMVI melanoma): 589 nM; TGI (LOX IMVI melanoma): 1790 nM; GI50 (M14 melanoma): 1350 nM; TGI (M14 melanoma): 2660 nM; GI50 (MALME-3M melanoma): 1630 nM; TGI (MALME-3M melanoma): 3350 nM; GI50 (MCF7 breast): 621 nM; TGI (MCF7 breast): 4400 nM; GI50 (MDA-MB-231 breast): 972 nM; TGI (MDA-MB-231 breast): 3060 nM; GI50 (MDA-MB-435): 923 nM; TGI (MDA-MB-435): 2250 nM; GI50 (MOLT-4 leukemia): 369 nM; TGI (MOLT-4 leukemia): 1580 nM; GI50 (NCI-H226 lung): 886 nM; TGI (NCI-H226 lung): 3010 nM; GI50 (NCI-H23 lung): 852 nM; TGI (NCI-H23 lung): 2530 nM; GI50 (NCI-H460 lung): 327 nM; TGI (NCI-H460 lung): 975 nM; GI50 (NCI-H522 lung): 518 nM; TGI (NCI-H522 lung): 1840 nM; GI50 (NCI/ADR-RES ovarian): 933 nM; TGI (NCI/ADR-RES ovarian): 3310 nM; GI50 (OVCAR-3 ovarian): 1710 nM; TGI (OVCAR-3 ovarian): 4260 nM; GI50 (OVCAR-4 ovarian): 704 nM; TGI (OVCAR-4 ovarian): 2250 nM; GI50 (OVCAR-5 ovarian): 1660 nM; TGI (OVCAR-5 ovarian): 5180 nM; GI50 (OVCAR-8 ovarian): 521 nM; TGI (OVCAR-8 ovarian): 2250 nM; GI50 (PC-3 prostate): 355 nM; TGI (PC-3 prostate): 1620 nM; GI50 (RPMI-8226 leukemia): 510 nM; TGI (RPMI-8226 leukemia): 1870 nM; GI50 (RXF 393 renal): 657 nM; TGI (RXF 393 renal): 1840 nM; GI50 (SF-268 CNS): 890 nM; TGI (SF-268 CNS): 2970 nM; GI50 (SF-295 CNS): 649 nM; TGI (SF-295 CNS): 2110 nM; GI50 (SF-539 CNS): 1430 nM; TGI (SF-539 CNS): 3050 nM; GI50 (SK-MEL-2 melanoma): 1270 nM; TGI (SK-MEL-2 melanoma): 2850 nM; GI50 (SK-MEL-28 melanoma): 1720 nM; TGI (SK-MEL-28 melanoma): 3100 nM; GI50 (SK-MEL-5 melanoma): 1580 nM; TGI (SK-MEL-5 melanoma): 2920 nM; GI50 (SK-OV-3 ovarian): 1020 nM; TGI (SK-OV-3 ovarian): 3640 nM; GI50 (SN12C renal): 540 nM; TGI (SN12C renal): 2680 nM; GI50 (SNB-19 CNS): 632 nM; TGI (SNB-19 CNS): 2700 nM; GI50 (SNB-75 CNS): 970 nM; TGI (SNB-75 CNS): 2380 nM; GI50 (SR leukemia): 338 nM; TGI (SR leukemia): 1070 nM; GI50 (SW-620 colon): 393 nM; TGI (SW-620 colon): 1650 nM; GI50 (T-47D breast): 1180 nM; TGI (T-47D breast): 2930 nM; GI50 (TK-10 renal): 837 nM; TGI (TK-10 renal): 3180 nM; GI50 (U251 CNS): 574 nM; TGI (U251 CNS): 2320 nM; GI50 (UACC-257 melanoma): 1750 nM; TGI (UACC-257 melanoma): 3270 nM; GI50 (UACC-62 melanoma): 1780 nM; TGI (UACC-62 melanoma): 3310 nM; GI50 (UO-31 renal): 929 nM; TGI (UO-31 renal): 3410 nM
